Test system: Botrytis cinerea
Test: Activity against the gray mold pathogen Botrytis cinerea in the microtiter test (Botrci)
Format: cell-based
Settings: microtiter plate, 405 nm, day 7 after inoculation
Protocol: The expected efficacies of active compound combinations were determined using Colby's formula (Colby, S. R. “Calculating synergistic and antagonistic responses of herbicide combinations”, Weeds, 15, 20-22, 1967) and compared with the observed efficacies.
E=x+y−x·y/100 • E expected efficacy, expressed in % of the untreated control, when using the mixture of the active compounds A and B at the concentrations a and b • x efficacy, expressed in % of the untreated control, when using the active compound A at the concentration a • y efficacy, expressed in % of the untreated control, when using the active compound B at the concentration b
The active compounds were formulated separately as a stock solution having a concentration of 10 000 ppm in DMSO.
The active compound epoxiconazole was used as a commercial formulation.
The stock solution is pipetted onto a microtiter plate (MTP) and diluted to the stated active compound concentration using a malt-based aqueous nutrient medium for fungi. An aqueous spore suspension of Botrytis cinerea was then added. The plates were placed in a water vapor-saturated chamber at temperatures of 18° C. Using an absorption photometer, the MTPs were measured at 405 nm on day 7 after the inoculation. The measured parameters were compared to the growth of the active compound-free control variant and the fungus- and active compound-free blank value to determine the relative growth in % of the pathogens in the individual active compounds.
The visually determined values for the percentage of infected leaf area were initially converted into a mean value and then converted into efficacies in % of the untreated control. An efficacy of 0 means the same degree of infection as in the untreated control, an efficacy of 100 means 0% infection. The expected efficacies for active compound combinations were determined using Colby's formula (Colby, S. R. (Calculating synergistic and antagonistic responses of herbicide combinations”, Weeds, 15, pp. 20-22, 1967) and compared to the observed efficacies.

Compound | Observed effect (%) (conc. 0.016 ppm) | Observed effect (%) (conc. 0.063 ppm) | Observed effect (%) (conc. 0.004 ppm) | Observed effect (%) (conc. 0.25 ppm)
Fc1ccc(C2(Cn3cncn3)OC2c2ccccc2Cl)cc1 (stereo not shown) [Epoxiconazole, epoxiconazole] | 15 | 48 |  | 
CO/C=C(/C(=O)OC)c1ccccc1COc1cccc(C(F)(F)F)n1 [Picoxystrobin, picoxystrobin] |  |  | 0 | 3

Source: patent US20090227450A1, “Triazole-Based Fungicidal Mixtures” (BASF Aktiengesellschaft, priority 2005, published 2009)
